We go through one compound from patent publication US20200197409A1, “HEPATITIS B VIRUS SURFACE ANTIGEN INHIBITOR” (FUJIAN COSUNTER PHARMACEUTICAL CO., LTD., priority 2017, published 2020).

The IC50 is the concentration that gives 50% inhibition. Higher therefore signals a need for much substance.

One data set concerns HBV. The data set is described as follows: In vivo pharmacodynamic study of hydrodynamic injection mouse HBV model (HDI-HBV) via tail vein. As to conditions: mouse plasma. More on the design: species or system Balb/c mice. On the procedure: Anti-hepatitis B virus activity of the compound of the embodiment in vivo was evaluated by HDI mice model.
Balb/c mice, 10% HP—F-CD as vehicle, test compound, RG7834, ETV (Entecavir), pAAV2-HBV 1.3mer plasmid (extracted with Qiagen EndoFree Plasmid Giga kit), main reagents including QIAamp96 DNA kit and FasStart Universal Probe Mast (ROX). The main instruments used in this experiment included centrifuge (Beckman Allegra X-15R), tissue grinder (QIAGEN-Tissue lyser II) and spectrophotometer (Thermo-NANODROP 1000).
b) On day 0, all mice were subjected to hydrodynamic injection with HBV plasmid DNA solution via tail vein. The plasmid DNA was pre-treated with sterile physiological saline before injection and stored at 4° C. until use. Plasmid DNA solution was injected via the tail vein at a dose of 8% of the body weight of the mouse within 5 seconds.
c) On the 1st day to the 7th day, the mice were administered with the compound or solvent by oral gavage for 7 days.
d) On the 1st day, 3rd day and 5th day, the blood was collected from the submandibular vein of the mice, and heparin sodium was used as an anticoagulant. The blood sample was centrifuged at 7,000×g, 4° C. to prepare the plasma for the determination of HBV DNA.
e) On the 7^h day, all mice were euthanized by CO2. The blood was collected from the heart to prepare plasma, and the liver tissue was collected. Two left hepatic lobe were isolated, the size of which was 70-100 mg, and were frozen by liquid nitrogen immediately after collection. One of the hepatic lobe was used for HBV DNA detection, and the other was used for backup.
The content of HBsAg in the serum of the mice was determined by ELISA (enzyme linked immunosorbent assay). The experimental procedure refers to the specification of HBsAg ELISA kit.
The inhibitory activity of the test compound on HBV replication on the mouse HDI model was determined by measuring the content of HBsAg in the plasma of the mice.

Data set [1] in a line: Single dose neurotoxicity test on rats (functional observation combination test, FOB). It is filed as in vivo. As to conditions: 24 hours after single intragastric dose of 1000 mg/kg and 300 mg/kg, male SD rats. On the procedure:
In this experiment, SD rats were intragastrically administrated with RG7834 and Embodiment 6 in a single dose, and the potential neurobehavioral toxicities to SD rats were evaluated by functional observation combination test (FOB). A total of 25 SD male rats were used in this experiment. At the start of the administration, the animals were about 7 to 8 weeks old, males weighed between 225.50 and 285.70 g, and […]. […] The animals in the control group were administered with the menstruum. All animals were administered at a volume of 10 mL/kg, and subjected to the FOB test.

The target in another data set is T1, CYP1A2 (Homo sapiens, UniProt P05177).
T1 construct: from tissue; host or cells: human liver microsomes
T1 sequence (P05177 1-516): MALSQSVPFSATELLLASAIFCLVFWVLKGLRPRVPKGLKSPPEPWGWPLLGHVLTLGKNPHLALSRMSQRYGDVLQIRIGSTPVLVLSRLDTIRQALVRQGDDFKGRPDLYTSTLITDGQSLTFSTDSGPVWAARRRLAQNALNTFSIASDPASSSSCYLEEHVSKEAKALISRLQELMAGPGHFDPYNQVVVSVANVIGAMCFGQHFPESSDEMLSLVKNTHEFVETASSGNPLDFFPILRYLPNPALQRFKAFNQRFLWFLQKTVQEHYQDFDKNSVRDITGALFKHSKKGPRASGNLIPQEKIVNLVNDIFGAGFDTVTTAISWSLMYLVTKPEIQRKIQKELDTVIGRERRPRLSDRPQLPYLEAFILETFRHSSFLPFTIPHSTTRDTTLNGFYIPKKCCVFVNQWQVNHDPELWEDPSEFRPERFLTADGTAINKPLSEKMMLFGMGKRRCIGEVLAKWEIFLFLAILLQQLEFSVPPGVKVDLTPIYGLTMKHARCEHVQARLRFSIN
The experiment in a line: Inhibition of cytochrome P450 isoenzyme in human liver microsomes. It is filed as in vitro ADME. On the procedure:
(§1) The inhibitory effect of the test compound on different subtypes of human cytochrome P450 isoenzyme was determined. Working solutions of the test compound, standard inhibitor (100×final concentration) and a mixed substrate were prepared. Microsomes frozen in a −80° C. refrigerator were thawed. 2 μL of test compound and the standard inhibitor solution were added into the corresponding wells, while 2 μL of the corresponding solvent was added into the non-inhibitor control well (NIC) and the blank control well (Blank). 20 μL of the mixed substrate solution was added into the corresponding wells except for the Blank well (20 μL of PB was added into the Blank well). Human liver microsomes solution was prepared (it was put back to the refrigerator immediately after use and the date was marked) and 158 μL of human liver microsomes solution were added into all of the wells immediately. The sample plate was pre-incubated under a 37° C. water bath, during which coenzyme factor (NADPH) solution was prepared immediately. After 10 minutes, 20 μL of coenzyme factor (NADPH) solution was added into all of the wells. After the sample plate was shaken evenly, it was incubated under a 37° C. water bath for 10 minutes. 400 μL of cold acetonitrile solution (the internal standard was 200 ng/mL Tolbutamide and Labetalol) was added to terminate the reaction at the corresponding time. After the sample plate was well-mixed, it was centrifuged at 4,000 rpm for 20 minutes to precipitate the protein. 200 μL of the supernatant was collected and added to 100 μL of water, and subjected to LC/MS/MS measurement after being shaken evenly.
(In general: Liver microsomes are a subcellular fraction often used to study metabolism.)

The target in another data set is T2, CYP2C9 (Homo sapiens, UniProt P11712).
T2 construct: from tissue; host or cells: human liver microsomes
T2 sequence (P11712 whole entry): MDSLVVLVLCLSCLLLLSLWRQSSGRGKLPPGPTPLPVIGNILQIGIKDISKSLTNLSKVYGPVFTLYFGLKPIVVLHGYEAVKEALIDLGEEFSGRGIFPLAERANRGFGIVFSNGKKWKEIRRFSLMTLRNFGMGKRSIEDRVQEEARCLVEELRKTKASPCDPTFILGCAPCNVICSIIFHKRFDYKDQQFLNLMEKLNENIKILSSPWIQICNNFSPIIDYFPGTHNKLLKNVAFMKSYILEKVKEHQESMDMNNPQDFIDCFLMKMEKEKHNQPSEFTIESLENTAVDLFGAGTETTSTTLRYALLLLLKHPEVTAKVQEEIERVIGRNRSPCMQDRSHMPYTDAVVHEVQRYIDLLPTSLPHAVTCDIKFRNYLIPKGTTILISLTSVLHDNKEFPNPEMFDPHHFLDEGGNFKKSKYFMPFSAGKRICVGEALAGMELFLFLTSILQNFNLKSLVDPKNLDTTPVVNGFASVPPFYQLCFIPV
Described as above. It is filed as in vitro ADME. On the procedure: as §1

The next data set deals with T3, CYP2C19 (Homo sapiens, UniProt P33261).
T3 construct: from tissue; host or cells: human liver microsomes
T3 sequence (P33261 whole entry): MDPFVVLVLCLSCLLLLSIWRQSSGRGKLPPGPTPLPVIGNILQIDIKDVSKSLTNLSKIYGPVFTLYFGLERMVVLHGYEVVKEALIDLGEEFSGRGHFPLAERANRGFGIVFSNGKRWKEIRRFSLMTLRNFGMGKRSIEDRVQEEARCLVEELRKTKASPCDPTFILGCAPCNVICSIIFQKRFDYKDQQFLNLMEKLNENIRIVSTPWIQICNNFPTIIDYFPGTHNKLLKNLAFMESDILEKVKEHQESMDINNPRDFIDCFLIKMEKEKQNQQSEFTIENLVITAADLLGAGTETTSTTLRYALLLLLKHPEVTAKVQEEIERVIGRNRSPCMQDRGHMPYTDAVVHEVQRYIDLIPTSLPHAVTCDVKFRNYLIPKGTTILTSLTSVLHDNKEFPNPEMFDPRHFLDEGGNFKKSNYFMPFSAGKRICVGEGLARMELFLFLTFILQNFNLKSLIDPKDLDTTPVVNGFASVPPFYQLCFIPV
Described as above. It is filed as in vitro ADME. On the procedure:
as §1

A short description of data set [2]: Microsomal metabolism stability, mouse. It is filed as in vitro ADME. The conditions noted are these: mouse liver microsomes 0.5 mg/mL, 1 μM, NADPH, 37° C. On the procedure:
(§2) The microsomal metabolism stability of the test compound (Embodiment 6) in three species was determined. 1 μM test compound and microsomes (0.5 mg/mL) supplemented with NADPH regeneration system were incubated at 37° C. The positive controls were testosterone (3A4 substrate), propafenone (2D6 substrate) and diclofenac (2C9 substrate), respectively. The positive control and microsomes (0.5 mg/mL) supplemented with NADPH regeneration system were incubated at 37° C. Samples at different time points (0, 5, 10, 20, 30, and 60 minutes) were mixed directly with cold acetonitrile containing an internal standard to terminate the reaction. The compound and microsomes were incubated for 60 minutes without the NADPH regeneration system. One parallel was set at each time point (n=1). The samples were analyzed by LC/MS/MS. The concentration of the compound was indicated by the ratio of the peak area of the analyte to the peak area of the internal standard.

Data set [3] can be described thus: Microsomal metabolism stability, human. The conditions noted are these: human liver microsomes 0.5 mg/mL, 1 μM, NADPH, 37° C. It is filed as in vitro ADME. On the procedure:
as §2

Regarding `COCCCOc1cc2c(cc1OC)-c1cc(=O)c(C(=O)O)cn1[C@H](C(C)(C)C)CO2` [Embodiment 6], the “Log HBsAg (IU/mL) (Ave. value)” value is given as 3.86 IU/mL in the data set with HBV (dosing time day 1, 30 mg/kg QD gavage); 4.09 IU/mL in the data set with HBV (dosing time day 3, 30 mg/kg QD gavage); 3.27 IU/mL in the data set on HBV (dosing time day 5, 30 mg/kg QD gavage); 1.07 IU/mL with HBV (dosing time day 7, 30 mg/kg QD gavage). For the same compound, the “magnification of the pupil associated with the test compound” value in data set [1] is listed as “did not appear”. Further, the IC50 at CYP1A2, against CYP2C9 and on CYP2C19 was more than 50 µM each time. Moreover, the “remaining ratio at T=60 min” value in data set [2] is listed as 102.5%; in data set [3], 109.1%.
